Test results published in ChEMBL document CHEMBL1201862, “PubChem BioAssay data set” (2004).
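How tested: cells in 96-well plates exposed to compound for 48 hours at five concentrations. GI50 = concentration required for 50% inhibition of growth.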 Calls of active or inactive are those of the source. Rule as the data show it: active = GI50 up to about 1.1 µM and inactive = higher.

Tests used:
Test in all cases: NCI anticancer screen, dose series, 48 h
SR = tested on: SR
RXF 393 = tested on: RXF 393
HT-29 = tested on: HT-29
CCRF-CEM = tested on: CCRF-CEM
HCT-116 = tested on: HCT-116
HOP-62 = tested on: HOP-62
COLO 205 = tested on: COLO 205
SK-MEL-28 = tested on: SK-MEL-28
A549 = tested on: A549
OVCAR-5 = tested on: OVCAR-5
NCI-H23 = tested on: NCI-H23
SW-620 = tested on: SW-620
IGROV-1 = tested on: IGROV-1
MOLT-4 = tested on: MOLT-4
M14 = tested on: M14
MCF7 = tested on: MCF7
MDA-N = tested on: MDA-N
MDA-MB-231 = tested on: MDA-MB-231

Measured: GI50

COC(=O)C1C(C(=O)OC)C2C(=O)C3C(C(=O)OC)C(C(=O)OC)C3C(=O)C12 (configuration not stated)
inactive: SR > 100 µM | RXF 393 25.4 µM | HT-29 > 100 µM | CCRF-CEM > 100 µM | HCT-116 > 100 µM | HOP-62 > 100 µM | COLO 205 > 100 µM | SK-MEL-28 > 100 µM | A549 > 100 µM | OVCAR-5 > 100 µM | NCI-H23 > 100 µM | SW-620 > 100 µM | IGROV-1 > 100 µM | MOLT-4 > 100 µM

COC(=O)CCC1=NOC(CC2CC(CCC(=O)OC)=NO2)C1 (configuration not stated)
inactive: RXF 393 > 100 µM | HT-29 > 100 µM | CCRF-CEM > 100 µM | HCT-116 > 100 µM | HOP-62 > 100 µM | COLO 205 > 100 µM | A549 > 100 µM | OVCAR-5 > 100 µM | M14 > 100 µM | NCI-H23 > 100 µM | SW-620 > 100 µM | IGROV-1 > 100 µM | MOLT-4 > 100 µM

O=C(Cc1nc(-c2ccccc2)cc(=O)n1-c1ccccc1Cl)c1ccncc1
inactive: RXF 393 > 100 µM | HT-29 > 100 µM | CCRF-CEM > 100 µM | HCT-116 > 100 µM | HOP-62 > 100 µM | COLO 205 > 100 µM | SK-MEL-28 > 100 µM | A549 > 100 µM | OVCAR-5 > 100 µM | M14 > 100 µM | NCI-H23 > 100 µM | SW-620 > 100 µM | IGROV-1 > 100 µM

Oc1c(Cl)c2nccnc2c2ccccc12
inactive: RXF 393 > 100 µM | HT-29 > 100 µM | CCRF-CEM > 100 µM | HCT-116 > 100 µM | COLO 205 > 100 µM | SK-MEL-28 > 100 µM | A549 > 100 µM | OVCAR-5 > 100 µM | M14 > 100 µM | NCI-H23 > 100 µM | SW-620 > 100 µM | IGROV-1 > 100 µM | MOLT-4 > 100 µM

N#C[C@]12CC3(CC[C@H]1CC1(C2)OCCO1)OCCO3
inactive: SR > 100 µM | RXF 393 > 100 µM | CCRF-CEM > 100 µM | HCT-116 > 100 µM | HOP-62 > 100 µM | COLO 205 > 100 µM | SK-MEL-28 > 100 µM | A549 > 100 µM | M14 > 100 µM | SW-620 > 100 µM | IGROV-1 > 100 µM | MOLT-4 > 100 µM

Cc1[nH]c2ccccc2c1C(=O)CC1(O)C(=O)Nc2c(Cl)cc(Cl)cc21 (configuration not stated)
inactive: SR 28.4 µM | RXF 393 22.2 µM | HT-29 54.3 µM | CCRF-CEM 20.3 µM | HCT-116 35.1 µM | HOP-62 46.9 µM | COLO 205 30.1 µM | SK-MEL-28 27 µM | A549 36.1 µM | OVCAR-5 24 µM | M14 21.5 µM | NCI-H23 19.5 µM | SW-620 22.2 µM | IGROV-1 53.1 µM | MOLT-4 22.1 µM

Cc1cc(Cc2cc(C)c(NC(=O)C(=O)C3C(=O)NC(=S)NC3=O)c(C(C)C)c2)cc(C(C)C)c1NC(=O)C(=O)C1C(=O)NC(=S)NC1=O
inactive: SR > 100 µM | RXF 393 > 100 µM | HT-29 > 100 µM | CCRF-CEM > 100 µM | HCT-116 > 100 µM | HOP-62 > 100 µM | COLO 205 > 100 µM | SK-MEL-28 > 100 µM | A549 > 100 µM | OVCAR-5 > 100 µM | M14 > 100 µM | NCI-H23 > 100 µM | SW-620 > 100 µM | IGROV-1 > 100 µM | MOLT-4 > 100 µM

O=C1NC(=O)c2c1n(Cc1ccccc1)c(=O)n2Cc1ccccc1
inactive: RXF 393 > 100 µM | HT-29 > 100 µM | CCRF-CEM > 100 µM | HCT-116 > 100 µM | HOP-62 > 100 µM | COLO 205 > 100 µM | SK-MEL-28 > 100 µM | A549 > 100 µM | OVCAR-5 > 100 µM | M14 > 100 µM | NCI-H23 > 100 µM | SW-620 > 100 µM | IGROV-1 > 100 µM | MOLT-4 > 100 µM

O=C1NC(=S)NC(=O)C1=Cc1ccc[nH]1
inactive: SR 3.62 µM | RXF 393 2.2 µM | HT-29 4.38 µM | CCRF-CEM 19.2 µM | HCT-116 3.48 µM | HOP-62 32.6 µM | COLO 205 12.2 µM | SK-MEL-28 24.5 µM | A549 26.7 µM | OVCAR-5 23.2 µM | M14 21 µM | NCI-H23 12.4 µM | SW-620 4.81 µM | IGROV-1 19.6 µM | MOLT-4 16.2 µM

C[N+]1=c2c3cccc4cccc(c(=O)n2CCC1)c43
inactive: SR 18.2 µM | RXF 393 22.1 µM | HT-29 20.1 µM | CCRF-CEM 3.13 µM | HCT-116 16.1 µM | HOP-62 31 µM | COLO 205 16.2 µM | SK-MEL-28 19.4 µM | A549 32.2 µM | OVCAR-5 17.8 µM | M14 17.2 µM | NCI-H23 19 µM | SW-620 25.2 µM | IGROV-1 36 µM | MOLT-4 19.9 µM

[O-][Cl+3]([O-])([O-])O.c1ccc(/N=c2\snc(-c3ccccc3)s2)cc1
inactive: SR > 100 µM | RXF 393 > 100 µM | CCRF-CEM > 100 µM | HCT-116 > 100 µM | HOP-62 > 100 µM | COLO 205 > 100 µM | SK-MEL-28 > 100 µM | A549 > 100 µM | M14 > 100 µM | SW-620 > 100 µM | IGROV-1 > 100 µM | MOLT-4 > 100 µM

C=C(C[N+](C)(C)C)N/N=C/c1oc(-c2ccc(OC)c(OC)c2)c(-c2ccc(OC)c(OC)c2)c1[N+](=O)[O-]
inactive: SR 4.69 µM | RXF 393 15.2 µM | HT-29 16.9 µM | CCRF-CEM 13.6 µM | HCT-116 17 µM | COLO 205 16.4 µM | SK-MEL-28 18.3 µM | A549 38.5 µM | OVCAR-5 19.1 µM | M14 22.1 µM | NCI-H23 21 µM | SW-620 18.7 µM | IGROV-1 18.1 µM | MOLT-4 22.4 µM

COC(=O)c1c(O)ccc(O)c1C(C(C)=O)C(C)=O
inactive: RXF 393 > 100 µM | HT-29 > 100 µM | CCRF-CEM > 100 µM | HCT-116 > 100 µM | HOP-62 > 100 µM | COLO 205 > 100 µM | SK-MEL-28 > 100 µM | A549 > 100 µM | M14 > 100 µM | NCI-H23 > 100 µM | SW-620 > 100 µM | IGROV-1 > 100 µM | MOLT-4 > 100 µM

Cc1noc2c1C(=O)CCC2
inactive: SR > 100 µM | RXF 393 > 100 µM | HT-29 > 100 µM | CCRF-CEM > 100 µM | HCT-116 > 100 µM | COLO 205 > 100 µM | SK-MEL-28 > 100 µM | OVCAR-5 > 100 µM | M14 > 100 µM | SW-620 > 100 µM | MOLT-4 > 100 µM

CC1=C(C(=O)Nc2ccccc2C)C(c2ccccc2C)C(C(=O)Nc2ccccc2C)=C(C)N1
inactive: SR 24.2 µM | RXF 393 12.3 µM | HT-29 20.3 µM | HCT-116 20.4 µM | HOP-62 25.2 µM | COLO 205 24.3 µM | SK-MEL-28 19.9 µM | A549 30.6 µM | OVCAR-5 23.3 µM | NCI-H23 21.5 µM | SW-620 18.1 µM | IGROV-1 18.5 µM | MOLT-4 > 10 µM

N#CN1CC[C@@H]2CC3(CCC2C1)OCCO3 (some centres not stated)
inactive: SR > 100 µM | RXF 393 > 100 µM | HT-29 > 100 µM | CCRF-CEM > 100 µM | HCT-116 > 100 µM | HOP-62 > 100 µM | COLO 205 > 100 µM | A549 > 100 µM | OVCAR-5 > 100 µM | M14 > 100 µM | NCI-H23 > 100 µM | SW-620 > 100 µM | IGROV-1 > 100 µM | MOLT-4 > 100 µM

CCOC(=O)c1[nH]c(CN(C)Cc2[nH]c(C(=O)OCC)c(C)c2C(=O)OCc2ccccc2)c(C(=O)OCc2ccccc2)c1C
inactive: SR > 100 µM | RXF 393 3.87 µM | HT-29 2.77 µM | CCRF-CEM > 100 µM | HCT-116 7 µM | HOP-62 13 µM | COLO 205 9.08 µM | SK-MEL-28 16.9 µM | A549 16.6 µM | OVCAR-5 6.81 µM | M14 4.99 µM | NCI-H23 12.3 µM | SW-620 12.7 µM | IGROV-1 27.4 µM | MOLT-4 > 100 µM

C[N+]12c3ccccc3O[B-]1(c1ccccc1)Oc1ccccc12 (configuration not stated)
inactive: SR 10.9 µM | RXF 393 25.4 µM | HT-29 73.5 µM | CCRF-CEM 11.9 µM | HCT-116 38.5 µM | HOP-62 72.1 µM | COLO 205 63.8 µM | SK-MEL-28 35.1 µM | A549 39.4 µM | OVCAR-5 77.4 µM | M14 15 µM | NCI-H23 52.8 µM | SW-620 28.1 µM | IGROV-1 25.4 µM | MOLT-4 5.74 µM

CCCC(=O)OC1=C(c2ccccc2)Sc2ccccc2-n2cccc21
inactive: SR > 10 µM | MCF7 > 10 µM | RXF 393 > 10 µM | HT-29 > 10 µM | MDA-N > 10 µM | CCRF-CEM > 10 µM | HOP-62 > 10 µM | COLO 205 > 10 µM | SK-MEL-28 > 10 µM | A549 > 10 µM | MDA-MB-231 > 10 µM | M14 > 10 µM | NCI-H23 > 10 µM | SW-620 > 10 µM | IGROV-1 > 10 µM | MOLT-4 > 10 µM
